Data from patent US20250188057A1, “NON-AROMATIC CYCLIC-PYRIMIDINE ANALOGS AS GLUCOSYLCERAMIDE SYNTHASE INHIBITORS” (Merck Sharp & Dohme LLC, priority 2022, published 2025).

Target: glucosylceramide synthase (GCS) (Homo sapiens (Human), UniProt Q16739)
Test: UDP-Glo glucosylceramide synthase biochemical assay
Details: endogenous GCS in Golgi preparations isolated from human A375 malignant melanoma skin cells; UDP detection by luminescence
From the text: A UDP-Glo™ glucosylceramide synthase biochemical assay was utilized to evaluate the effect of test compounds on the activity of endogenous levels of GCS enzyme contained within Golgi preparations isolated from human A375 malignant melanoma skin cells. The UDP-Glo™ glucosylceramide synthase assay uses UDP-Glucose as a nucleotide-glycosyl donor and ceramide as substrate acceptor molecules. In the reaction, glucosylceramide synthase (GCS) transfers glucose from UDP-Glucose to ceramide. Glucosylceramide and UDP are released as products.
Using Promega's UDP-Glo™ Glycosyltransferase assay kit (Promega Corporation, Madison, WI, USA (Promega)), GCS activity was indirectly measured by detecting the amount of UDP produced. An aliquot of GCS enzyme (1.5 μg crude golgi preparation, total protein) and titrated test compound were aliquoted to each well and incubated for 30 minutes at room temperature. […] An equivalent volume of substrate mixture was then added to each well. Following a 20 h incubation at room temperature to allow for GCS turnover of substrate, an equal volume of UDP detection reagent (Promega) was added to each well and incubated for an additional 75 minutes at room temperature to simultaneously convert the accumulated UDP product into ATP and generate light in a luciferase reaction. The generated light was detected using a luminometer. […] luminescence values (RLUs) were normalized to mean “min” and “max” effects, as determined on each plate. “Min” was defined as the mean of the values of the wells treated with vehicle (DMSO) and which represent 0% inhibition; “max” was defined as the mean of the values of the wells treated with a reference inhibitor and which represent the 100% effect. Values for % Emax and EC50 were determined by best-fitting the normalized data to a curve in Activity Base along a four-parameter logistic nonlinear regression (4PL) model (based on the Levenberg-Marquardt algorithm and defined by the equation below): […]
where: n is 4PMin (bottom of the curve); m is 4PMax (top of the curve); i is IP (inflection point of curve); and p is slope. See Levenberg, K., “A Method for the Solution of Certain Problems in Least Squares”, Quart. Appl. Math. 2, (1944), pp 164-168 and Marquardt, D., “An Algorithm for Least Squares Estimation on Nonlinear Parameters”, SIAM J. Appl. Math 11, (1963) pp 431-441.

glucosylceramide synthase (GCS), sequence (Q16739 whole entry): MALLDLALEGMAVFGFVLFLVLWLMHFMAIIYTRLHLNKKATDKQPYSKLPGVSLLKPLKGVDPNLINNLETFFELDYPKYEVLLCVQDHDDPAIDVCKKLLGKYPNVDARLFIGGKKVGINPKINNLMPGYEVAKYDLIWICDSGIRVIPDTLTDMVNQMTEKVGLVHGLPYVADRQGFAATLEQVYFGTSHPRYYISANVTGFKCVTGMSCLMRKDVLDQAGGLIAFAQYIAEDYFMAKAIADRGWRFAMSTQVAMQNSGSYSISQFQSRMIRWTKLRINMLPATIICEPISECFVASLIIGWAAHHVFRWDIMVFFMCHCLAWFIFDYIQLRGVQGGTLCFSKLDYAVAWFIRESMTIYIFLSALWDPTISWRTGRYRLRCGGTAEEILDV

| IC50 | SMILES |
| --- | --- |
| 3910 nM | CCC(C)c1nc2c(s1)CCCC2Nc1nc(C2CC2)nc(Cl)c1CO (centres unmarked) [Compound 116, (4-((2-(sec-butyl)-4,5,6,7-tetrahydrobenzo[d]thiazol-4-yl)amino)-6-chloro-2-cyclopropylpyrimidin-5-yl)methanol] |
| 168 nM | CNC(=O)C12CN(c3nc(C4CC4)ncc3C#N)CC1C(c1ccc(C)cc1)=NO2 (centres unmarked) [Compound 85, 5-(5-cyano-2-cyclopropylpyrimidin-4-yl)-N-methyl-3-(p-tolyl)-3a,4,5,6-tetrahydro-6aH-pyrrolo[3,4-d]isoxazole-6a-carboxamide] |
| 3430 nM | C=Cc1cc(N2CC(c3nc4ccccc4n3C)C2)nc(C)n1 [Compound 122, 1-methyl-2-(1-(2-methyl-6-vinylpyrimidin-4-yl)azetidin-3-yl)-1H-benzo[d]imidazole] |
| 4.3 nM | N#Cc1cnc(C2CC2)nc1OC[C@H]1CCN(c2ccc(-n3cccn3)cc2)C1 [Compound 7, (S)-4-((1-(4-(1H-pyrazol-1-yl)phenyl)pyrrolidin-3-yl)methoxy)-2-cyclopropylpyrimidine-5-carbonitrile] |
| 363 nM | N#Cc1cnc(C2CC2)nc1OCC1CCCN1c1ccccc1 (centres unmarked) [Compound 59, 2-cyclopropyl-4-((1-phenylpyrrolidin-2-yl)methoxy)pyrimidine-5-carbonitrile] |
| 61 nM | N#Cc1cnc(C2CC2)nc1OC[C@H]1CCN(c2ncc(C(F)(F)F)cn2)C1 [Compound 42, (S)-2-cyclopropyl-4-((1-(5-(trifluoromethyl)pyrimidin-2-yl)pyrrolidin-3-yl)methoxy)pyrimidine-5-carbonitrile] |
| 877 nM | N#Cc1cnc(C2CC2)nc1N1CCN(Cc2nc(-c3ccc(Cl)cc3)no2)CC1 [Compound 70, 4-(4-((3-(4-chlorophenyl)-1,2,4-oxadiazol-5-yl)methyl)piperazin-1-yl)-2-cyclopropylpyrimidine-5-carbonitrile] |
| 3330 nM | OCc1c(Cl)nc(C2CC2)nc1N1CCc2nc(C3CC3)sc2C1 [Compound 114, (4-chloro-2-cyclopropyl-6-(2-cyclopropyl-6,7-dihydrothiazolo[5,4-c]pyridin-5(4H)-yl)pyrimidin-5-yl)methanol] |
| 141 nM | N#Cc1cnc(C2CC2)nc1OC[C@H]1CCN(c2sccc2C#N)C1 [Compound 14] |
| 3410 nM | OCc1cnc(C2CC2)nc1OCC1CCN(c2ccc(C(F)(F)F)nc2)CC1 [Compound 5, (2-cyclopropyl-4-((1-(6-(trifluoromethyl)pyridin-3-yl)piperidin-4-yl)methoxy)pyrimidin-5-yl)methanol] |
| 546 nM | N#Cc1cnc(C2CC2)nc1N1CCOCC1c1ccccc1F (centres unmarked) [Compound 68, 2-cyclopropyl-4-(3-(2-fluorophenyl)morpholino)pyrimidine-5-carbonitrile] |
| 107 nM | N#Cc1cnc(C2CC2)nc1OCC12CC(C1)N(c1ncc(C(F)(F)F)cn1)C2 [Compound 54, 2-cyclopropyl-4-((2-(5-(trifluoromethyl)pyrimidin-2-yl)-2-azabicyclo[2.1.1]hexan-4-yl)methoxy)pyrimidine-5-carbonitrile] |
| 841 nM | Cc1nc2c(s1)CCCC2Nc1nc(C2CC2)nc(Cl)c1C(F)F (centres unmarked) [Compound 123, N-(6-chloro-2-cyclopropyl-5-(difluoromethyl)pyrimidin-4-yl)-2-methyl-4,5,6,7-tetrahydrobenzo[d]thiazol-4-amine] |
| 3620 nM | N#Cc1cnc(C2CC2)nc1OC[C@H]1CCN(c2ccnc(C3CCC3)c2)C1 [Compound 27, (S)-4-((1-(2-cyclobutylpyridin-4-yl)pyrrolidin-3-yl)methoxy)-2-cyclopropylpyrimidine-5-carbonitrile] |
| 140 nM | N#Cc1cnc(C2CC2)nc1OC[C@H]1CCN(c2ccc(C(F)(F)F)nc2)C1 [Compound 44, (S)-2-cyclopropyl-4-((1-(6-(trifluoromethyl)pyridin-3-yl)pyrrolidin-3-yl)methoxy)pyrimidine-5-carbonitrile] |

Second part, the compound before the results:

| SMILES | IC50 |
| --- | --- |
| N#Cc1cnc(C2CC2)nc1N1CC2CCCC1CN(Cc1ccccc1)C2 (centres unmarked) [Compound 72, 4-(3-benzyl-3,9-diazabicyclo[3.3.2]decan-9-yl)-2-cyclopropylpyrimidine-5-carbonitrile] | 1860 nM |
| COC[C@@H](c1ccc(C(F)(F)F)cc1)N1CCN(c2nc(C3CC3)ncc2C#N)C[C@@H]1C [Compound 81, 2-cyclopropyl-4-((S)-4-((R)-2-methoxy-1-(4-(trifluoromethyl)phenyl)ethyl)-3-methylpiperazin-1-yl)pyrimidine-5-carbonitrile] | 584 nM |
| N#Cc1cnc(C2CC2)nc1OC[C@H]1CCN(c2cnc(-n3cccn3)cn2)C1 [Compound 56, (S)-4-((1-(5-(1H-pyrazol-1-yl)pyrazin-2-yl)pyrrolidin-3-yl)methoxy)-2-cyclopropylpyrimidine-5-carbonitrile] | 161 nM |
| N#Cc1cnc(C2CC2)nc1N1CCC(N2CCN(Cc3ccc(F)cc3)S2(=O)=O)CC1 [Compound 78, 2-cyclopropyl-4-(4-(5-(4-fluorobenzyl)-1,1-dioxido-1,2,5-thiadiazolidin-2-yl)piperidin-1-yl)pyrimidine-5-carbonitrile] | 1800 nM |
| N#Cc1cnc(C2CC2)nc1OC[C@H]1CCN(c2cc(C(F)(F)F)ccn2)C1 [Compound 46, (S)-2-cyclopropyl-4-((1-(4-(trifluoromethyl)pyridin-2-yl)pyrrolidin-3-yl)methoxy)pyrimdiine-5-carbonitrile] | 4190 nM |
| N#Cc1cnc(C2CC2)nc1N1CCc2c(sn(Cc3ccc(F)cc3)c2=O)C1 [Compound 69, 2-cyclopropyl-4-(2-(4-fluorobenzyl)-3-oxo-3,4,5,7-tetrahydroisothiazolo[5,4-c]pyridin-6(2H)-yl)pyrimidine-5-carbonitrile] | 2760 nM |
| N#Cc1cnc(C2CC2)nc1OC[C@H]1CCN(c2ccc(C(F)(F)F)cn2)C1 [Compound 43, (S)-2-cyclopropyl-4-((1-(5-(trifluoromethyl)pyridin-2-yl)pyrrolidin-3-yl)methoxy)pyrimidine-5-carbonitrile] | 40 nM |
| CC(C)c1nc(-c2cccnc2N2CCN(c3nc(C4CC4)ncc3C#N)CC2)no1 [Compound 93, 2-cyclopropyl-4-(4-(3-(5-isopropyl-1,2,4-oxadiazol-3-yl)pyridin-2-yl)piperazin-1-yl)pyrimidine-5-carbonitrile] | 48 nM |
| COc1cc(N2CC[C@@H](COc3nc(C4CC4)ncc3C#N)C2)c(F)cn1 [Compound 38, (R)-2-cyclopropyl-4-((1-(5-fluoro-2-methoxypyridin-4-yl)pyrrolidin-3-yl)methoxy)pyrimidine-5-carbonitrile] | 2940 nM |
| N#Cc1cnc(C2CC2)nc1OC[C@H]1CCN(c2ccc(-c3cnco3)cc2)C1 [Compound 22, (S)-2-cyclopropyl-4-((1-(4-(oxazol-5-yl)phenyl)pyrrolidin-3-yl)methoxy)pyrimidine-5-carbonitrile] | 26 nM |
| N#Cc1cnc(C2CC2)nc1N1Cc2cccn3c(C(=O)NCC4CC4)cc(c23)C1 [Compound 65, 2-(5-cyano-2-cyclopropylpyrimidin-4-yl)-N-(cyclopropylmethyl)-2,3-dihydro-1H-pyrrrolo[3,2,1-ij][1,6]naphthyridine-5-carboxamide] | 119 nM |
| N#Cc1cnc(C2CC2)nc1OC1CCc2ccc(OC(F)(F)F)cc21 (centres unmarked) [Compound 97, 2-cyclopropyl-4-((6-(trifluoromethoxy)-2,3-dihydro-1H-inden-1-yl)oxy)pyrimidine-5-carbonitrile] | 18 nM |
| N#Cc1cnc(C2CC2)nc1OC[C@@H]1CCN(c2cc(F)ncc2Cl)C1 [Compound 37, (R)-4-((1-(5-chloro-2-fluoropyridin-4-yl)pyrrolidin-3-yl)methoxy)-2 cyclopropylpyrimidine-5-carbonitrile] | 3510 nM |
| N#Cc1cnc(C2CC2)nc1N(CC1CCCO1)CC1CC2C=CC1C2 (centres unmarked) [Compound 74, 4-((bicyclo[2.2.1]hept-5-en-2-ylmethyl)((tetrahydrofuran-2-yl)methyl)amino)-2-cyclopropylpyrimidine-5-carbonitrile] | 278 nM |
| N#Cc1cnc(C2CC2)nc1NC(c1ccccc1)C1(N2CCCCC2)CCC1 (centres unmarked) [Compound 84, 2-cyclopropyl-4-((phenyl(1-(piperidin-1-yl)cyclobutyl)methyl)amino)pyrimidine-5-carbonitrile] | 1240 nM |
| N#Cc1cnc(C2CC2)nc1OC[C@@H]1C[C@H]1c1ccc(F)cn1 [Compound 62, 2-cyclopropyl-4-(((1R,2R)-2-(5-fluoropyridin-2-yl)cyclopropyl)methoxy)pyrimidine-5-carbonitrile] | 983 nM |
| OCc1cnc(C2CC2)nc1OC[C@H]1CN(c2ccc(C(F)(F)F)nc2)CCO1 [Compound 4, (R)-(2-cyclopropyl-4-((4-(6-(trifluoromethyl)pyridin-3-yl)morpholin-2-yl)methoxy)pyrimidin-5-yl)methanol] | 1380 nM |
